Experiment [1] has as its target Potassium voltage-gated channel subfamily KQT member 2 (Rattus norvegicus, UniProt O88943). Put plainly: blockers of KCNQ2 channel current – cell-based, automated electrophysiology, set II, rat KCNQ2, dose response (AID 588637). The class given is functional.
The target in experiment [2] is DNA repair and recombination protein RAD54-like (Homo sapiens, UniProt Q92698). The experiment can be described thus: RAD54 Holliday junction migration blockers – biochemical, fluorescence, cherry-picked samples, dose series, confirmation (AID 651657). The class given is functional.
DNA repair and recombination protein RAD54-like, sequence (Q92698 whole entry): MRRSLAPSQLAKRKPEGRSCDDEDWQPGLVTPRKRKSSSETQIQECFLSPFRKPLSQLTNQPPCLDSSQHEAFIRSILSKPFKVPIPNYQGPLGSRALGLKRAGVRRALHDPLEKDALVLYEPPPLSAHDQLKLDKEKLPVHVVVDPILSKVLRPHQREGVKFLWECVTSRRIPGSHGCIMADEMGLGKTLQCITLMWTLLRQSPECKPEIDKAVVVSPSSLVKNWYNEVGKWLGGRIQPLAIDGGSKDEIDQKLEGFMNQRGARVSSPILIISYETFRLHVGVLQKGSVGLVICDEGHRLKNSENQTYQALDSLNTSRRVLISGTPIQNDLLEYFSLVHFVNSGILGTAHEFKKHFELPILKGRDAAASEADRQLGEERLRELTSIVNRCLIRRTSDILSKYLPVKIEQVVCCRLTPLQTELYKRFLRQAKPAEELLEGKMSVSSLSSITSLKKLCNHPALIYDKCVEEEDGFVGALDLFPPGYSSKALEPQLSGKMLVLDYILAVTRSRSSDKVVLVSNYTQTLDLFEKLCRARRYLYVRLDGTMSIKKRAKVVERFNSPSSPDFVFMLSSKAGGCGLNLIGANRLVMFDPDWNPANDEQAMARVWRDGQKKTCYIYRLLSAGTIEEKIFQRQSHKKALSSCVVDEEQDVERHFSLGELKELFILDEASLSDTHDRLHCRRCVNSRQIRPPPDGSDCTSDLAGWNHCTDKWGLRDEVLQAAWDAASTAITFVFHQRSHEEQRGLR
In experiment [3] the target is T1, RNA-binding protein pos-1 (Caenorhabditis elegans, UniProt G5EF15).
T1 sequence (G5EF15 whole entry): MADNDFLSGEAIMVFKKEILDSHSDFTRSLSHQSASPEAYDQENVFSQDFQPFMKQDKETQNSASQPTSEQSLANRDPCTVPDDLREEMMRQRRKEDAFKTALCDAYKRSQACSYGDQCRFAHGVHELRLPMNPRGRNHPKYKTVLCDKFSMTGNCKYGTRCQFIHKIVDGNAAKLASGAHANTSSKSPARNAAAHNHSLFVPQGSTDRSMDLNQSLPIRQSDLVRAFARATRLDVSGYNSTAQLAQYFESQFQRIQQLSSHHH
Put plainly: disruptors of C. elegans POS-1 RNA interaction – biochemical, fluorescence polarization, dose response (AID 1964).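 Further: purified POS-1 fused to maltose binding protein made in E. coli; potency of compounds blocking POS-1 binding to fluorescent RNA.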 For orientation: Polarisation of emitted light reports the rotation of a fluorescent probe.

The target of experiment [4] is T2, Zinc finger protein mex-5 (Caenorhabditis elegans, UniProt Q9XUB2).
T2 sequence (Q9XUB2 whole entry): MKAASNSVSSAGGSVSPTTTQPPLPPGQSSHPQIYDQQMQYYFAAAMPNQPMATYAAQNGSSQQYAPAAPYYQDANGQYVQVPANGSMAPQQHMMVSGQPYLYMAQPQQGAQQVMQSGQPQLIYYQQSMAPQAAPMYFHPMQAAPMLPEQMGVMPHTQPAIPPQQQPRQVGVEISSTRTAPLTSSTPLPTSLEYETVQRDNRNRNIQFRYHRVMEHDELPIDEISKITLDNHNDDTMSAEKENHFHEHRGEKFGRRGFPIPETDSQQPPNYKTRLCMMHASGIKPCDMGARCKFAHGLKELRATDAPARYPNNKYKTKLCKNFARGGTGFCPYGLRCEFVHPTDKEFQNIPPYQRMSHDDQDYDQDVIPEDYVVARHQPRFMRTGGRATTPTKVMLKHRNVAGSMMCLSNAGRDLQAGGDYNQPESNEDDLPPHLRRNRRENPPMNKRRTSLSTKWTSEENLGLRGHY
The experiment can be described thus: potency of MEX-5 RNA-binding blockers – biochemical, C. elegans, fluorescence polarization, dose response (AID 1960).

In a further experiment the target is Genome polyprotein (dengue virus type 2, UniProt P29990). Put plainly: flavivirus cap methylation enzyme inhibition – biochemical, confirmation dose response, primary screen (AID 588689). The class given is functional.
Genome polyprotein, sequence (P29990 2492-3391 limits assumed): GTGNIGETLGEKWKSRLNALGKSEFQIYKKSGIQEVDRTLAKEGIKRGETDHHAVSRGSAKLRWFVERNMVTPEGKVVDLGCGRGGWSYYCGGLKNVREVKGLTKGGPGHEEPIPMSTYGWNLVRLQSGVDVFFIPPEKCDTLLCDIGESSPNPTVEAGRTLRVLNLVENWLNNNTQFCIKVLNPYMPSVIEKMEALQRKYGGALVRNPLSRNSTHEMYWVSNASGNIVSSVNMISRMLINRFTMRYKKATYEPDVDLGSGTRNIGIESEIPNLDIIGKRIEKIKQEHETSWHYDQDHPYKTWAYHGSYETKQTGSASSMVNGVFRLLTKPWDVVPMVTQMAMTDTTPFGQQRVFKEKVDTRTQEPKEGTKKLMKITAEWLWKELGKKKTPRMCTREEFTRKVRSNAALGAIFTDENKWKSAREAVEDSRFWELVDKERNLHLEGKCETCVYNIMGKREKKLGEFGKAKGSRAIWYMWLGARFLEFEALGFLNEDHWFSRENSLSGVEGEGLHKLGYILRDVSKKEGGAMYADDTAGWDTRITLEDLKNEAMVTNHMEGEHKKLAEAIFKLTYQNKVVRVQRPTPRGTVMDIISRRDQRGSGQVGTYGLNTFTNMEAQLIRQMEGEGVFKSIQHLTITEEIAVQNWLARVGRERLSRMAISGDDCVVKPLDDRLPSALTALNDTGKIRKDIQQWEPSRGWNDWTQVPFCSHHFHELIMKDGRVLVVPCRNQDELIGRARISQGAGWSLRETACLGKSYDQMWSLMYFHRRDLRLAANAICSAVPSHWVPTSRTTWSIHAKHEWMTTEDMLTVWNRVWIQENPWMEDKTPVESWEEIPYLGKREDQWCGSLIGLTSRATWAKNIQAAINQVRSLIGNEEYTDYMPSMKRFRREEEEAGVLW
The target in experiment [5] is T3, Carboxy-terminal domain RNA polymerase II polypeptide A small phosphatase 1 (Homo sapiens, UniProt Q9GZU7).
T3 sequence (Q9GZU7 whole entry): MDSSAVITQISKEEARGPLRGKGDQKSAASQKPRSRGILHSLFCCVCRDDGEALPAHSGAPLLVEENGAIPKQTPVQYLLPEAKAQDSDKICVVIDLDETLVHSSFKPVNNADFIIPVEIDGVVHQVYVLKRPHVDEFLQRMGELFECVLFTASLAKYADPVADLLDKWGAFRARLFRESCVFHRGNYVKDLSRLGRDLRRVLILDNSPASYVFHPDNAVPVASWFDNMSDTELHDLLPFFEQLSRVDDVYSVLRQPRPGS
The experiment can be described thus: CTDSP1 inhibitors, concentration-response, biochemical, absorbance readout, ultra-high-throughput screen actives (AID 540297). The class given is functional.

The target of experiment [6] is DNA (cytosine-5)-methyltransferase 1 (Homo sapiens, UniProt P26358). The experiment can be described thus: inhibition of DNA methylation by DNMT1 – biochemical, fluorescent molecular beacon, confirmation (AID 602386). Format: functional.
DNA (cytosine-5)-methyltransferase 1, sequence (P26358 whole entry): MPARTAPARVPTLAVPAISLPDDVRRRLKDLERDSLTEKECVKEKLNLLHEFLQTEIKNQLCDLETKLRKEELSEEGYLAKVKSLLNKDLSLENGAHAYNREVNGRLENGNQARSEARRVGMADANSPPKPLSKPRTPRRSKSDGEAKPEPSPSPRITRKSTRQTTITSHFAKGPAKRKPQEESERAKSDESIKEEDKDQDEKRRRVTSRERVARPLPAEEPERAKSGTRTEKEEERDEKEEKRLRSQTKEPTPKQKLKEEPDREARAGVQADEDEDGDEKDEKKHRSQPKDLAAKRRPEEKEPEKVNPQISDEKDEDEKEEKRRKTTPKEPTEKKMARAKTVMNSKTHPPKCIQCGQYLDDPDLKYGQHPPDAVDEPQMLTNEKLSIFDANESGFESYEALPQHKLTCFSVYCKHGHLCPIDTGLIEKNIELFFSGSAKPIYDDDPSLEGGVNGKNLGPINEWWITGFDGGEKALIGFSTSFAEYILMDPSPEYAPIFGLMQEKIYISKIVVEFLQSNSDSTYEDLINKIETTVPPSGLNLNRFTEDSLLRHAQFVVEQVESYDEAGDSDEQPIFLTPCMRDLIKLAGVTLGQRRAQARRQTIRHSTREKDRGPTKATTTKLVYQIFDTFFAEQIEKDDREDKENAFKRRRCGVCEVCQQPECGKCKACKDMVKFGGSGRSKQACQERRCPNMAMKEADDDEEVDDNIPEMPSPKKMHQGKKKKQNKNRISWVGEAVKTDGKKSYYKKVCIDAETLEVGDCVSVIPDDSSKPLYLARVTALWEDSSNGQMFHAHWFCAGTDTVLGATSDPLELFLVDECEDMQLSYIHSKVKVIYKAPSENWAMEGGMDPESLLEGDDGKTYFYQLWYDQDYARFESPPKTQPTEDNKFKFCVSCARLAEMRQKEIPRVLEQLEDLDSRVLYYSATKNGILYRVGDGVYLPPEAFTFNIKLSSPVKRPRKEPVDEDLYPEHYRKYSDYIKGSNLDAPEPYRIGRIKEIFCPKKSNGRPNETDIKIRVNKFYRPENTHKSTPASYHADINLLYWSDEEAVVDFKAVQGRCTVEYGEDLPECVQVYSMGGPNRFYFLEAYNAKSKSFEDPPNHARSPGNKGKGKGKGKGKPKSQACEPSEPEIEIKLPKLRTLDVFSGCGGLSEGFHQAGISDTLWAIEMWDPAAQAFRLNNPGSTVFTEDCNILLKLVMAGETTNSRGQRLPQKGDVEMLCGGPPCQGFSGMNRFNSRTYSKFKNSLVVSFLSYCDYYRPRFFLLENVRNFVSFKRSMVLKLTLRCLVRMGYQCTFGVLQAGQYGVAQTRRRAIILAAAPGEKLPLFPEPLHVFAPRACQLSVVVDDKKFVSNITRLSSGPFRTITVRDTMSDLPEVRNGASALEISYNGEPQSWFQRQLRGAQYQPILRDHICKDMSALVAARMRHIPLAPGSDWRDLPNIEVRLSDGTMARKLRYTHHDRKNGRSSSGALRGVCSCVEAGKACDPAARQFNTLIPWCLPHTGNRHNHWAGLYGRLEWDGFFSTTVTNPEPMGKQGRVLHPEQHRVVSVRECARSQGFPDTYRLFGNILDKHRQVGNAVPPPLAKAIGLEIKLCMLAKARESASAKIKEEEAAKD
Experiment [7] addresses Histone-lysine N-methyltransferase NSD2 (Homo sapiens, UniProt O96028). Format: biochemical.
Experiment [8] in a line: Luminescence Cell-Based Dose Confirmation HTS to Identify Activators of 5'UTR Stem-Loop Driven Alpha-Synuclein mRNA Translation in H4 Neuroglioblastoma Cells. [Related pubchem assays: 1829 (Project Summary), 1814 (Primary HTS)]. Format: functional.
Experiment [9] is described as follows: Luminescence Cell-Based Dose Response HTS to Identify Activators of Luciferase Translation or Activity in H4 […] Cells. [Related pubchem assays: 1829 (Project Summary), 1814 (Primary HTS)]. Format: functional.
The subject of the next experiment is H4. Put plainly: Luminescence Cell-Based Dose Response HTS to Identify Activators of 5'UTR Stem-Loop Driven Prion Protein mRNA Translation in H4 Neuroglioblastoma Cells. [Related pubchem assays: 1829 (Project Summary), 1814 (Primary HTS)]. Format: functional. The settings on record: Homo sapiens.
A short description of experiment [10]: Vero cell cytotoxicity, cytotoxicity control for M. tuberculosis inhibitor project, purified and synthesized samples, set 3 (AID 504684). The class given is functional. The note with it: […].
A short description of experiment [11]: reduction of Shn3 3'UTR-driven luciferase in osteoblasts – cell-based, Clone20 osteoblasts, firefly luciferase, cherry-picked, dose response (AID 624132).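 Further: firefly luciferase luminescence from reporter carrying the Shn3 3'UTR in osteoblasts.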 Format: functional.
Experiment [12] in a line: loss of viability in HepG2 cells – cell-based, CellTiter-Glo, cherry-picked, cytotoxicity control for Shn3 inhibitor project, dose response (AID 624134). Format: functional. (In general: In ATP-based viability assays light output follows the ATP content of the culture.)
The nature of experiment [13]: non-specific 3'UTR reporter inhibition in Clone20-Shn3RL – cell-based, Renilla luciferase, cherry-picked, counter-screen for Shn3 inhibitor project, dose response (AID 624133). Format: functional. On the technique in general: The purpose of a counterscreen is to sort out artefacts and off-target activity.
A further experiment addresses Protein Wnt-3a (Mus musculus, UniProt P27467). The experiment can be described thus: antagonism of Wnt3a pathway luciferase reporter – Wnt-LIGHT cells, luminescence, selectivity assay for Gli-SUFU antagonist project, dose response (AID 651570).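 Further: Wnt-LIGHT reporter cells stimulated with conditioned medium from Wnt3a-producing cells.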 Format: functional. The note with it: read-out: IC50_Mean.
Another experiment has as its target Melanocortin receptor 4 (Homo sapiens, UniProt P32245). Format: functional, cell-based.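 Further: Cell-based assay with luminescence read-out, confirmatory dose-response testing for agonist activity of biased ligands at MC4R; human U2OS cells with tagged receptor and beta-arrestin; potency of agonists that increase receptor coupling to beta-arrestin.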
In experiment [14] the target is T4, Sentrin-specific protease 1 (Homo sapiens, UniProt Q9P0U3).
T4 sequence (Q9P0U3 whole entry): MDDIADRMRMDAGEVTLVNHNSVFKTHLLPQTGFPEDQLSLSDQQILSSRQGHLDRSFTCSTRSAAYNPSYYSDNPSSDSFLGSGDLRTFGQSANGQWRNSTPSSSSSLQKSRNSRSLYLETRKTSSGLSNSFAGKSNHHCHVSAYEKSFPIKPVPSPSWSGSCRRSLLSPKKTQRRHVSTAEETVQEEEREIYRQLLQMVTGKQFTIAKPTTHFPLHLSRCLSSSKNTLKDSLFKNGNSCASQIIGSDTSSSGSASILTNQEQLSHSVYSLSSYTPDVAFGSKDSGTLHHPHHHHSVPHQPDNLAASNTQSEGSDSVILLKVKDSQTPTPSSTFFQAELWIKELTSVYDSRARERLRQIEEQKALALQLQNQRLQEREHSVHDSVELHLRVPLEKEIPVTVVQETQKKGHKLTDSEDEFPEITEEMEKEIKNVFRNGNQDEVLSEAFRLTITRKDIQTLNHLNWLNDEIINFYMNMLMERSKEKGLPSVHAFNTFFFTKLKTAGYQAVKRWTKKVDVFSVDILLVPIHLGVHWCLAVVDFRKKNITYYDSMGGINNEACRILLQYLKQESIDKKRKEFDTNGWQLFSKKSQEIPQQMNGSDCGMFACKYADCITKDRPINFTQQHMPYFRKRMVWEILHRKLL
Put plainly: SENP1 catalytic domain blockers, concentration series – biochemical, kinetic FRET, dose response (AID 651697). The class given is functional. The settings on record: read-out: IC50_Mean.

For experiment [15], the target named is T4, Sentrin-specific protease 1. Put plainly: Dose response confirmation of small molecule inhibitors of the catalytic domain of the SUMO protease, SENP1 in a FRET assay. Format: functional. The settings on record: read-out: IC50_Mean.
The target in experiment [16] is Melanin-concentrating hormone receptor 1 (Homo sapiens, UniProt Q99705). The experiment can be described thus: Late-stage fluorescence-based counterscreen for antagonists of the G-protein coupled receptor 7 (GPR7): cell-based dose response assay to identify antagonists of the melanin-concentrating hormone receptor 1 (MCHR1) Set 6. The class given is functional.
Melanin-concentrating hormone receptor 1, sequence (Q99705 whole entry): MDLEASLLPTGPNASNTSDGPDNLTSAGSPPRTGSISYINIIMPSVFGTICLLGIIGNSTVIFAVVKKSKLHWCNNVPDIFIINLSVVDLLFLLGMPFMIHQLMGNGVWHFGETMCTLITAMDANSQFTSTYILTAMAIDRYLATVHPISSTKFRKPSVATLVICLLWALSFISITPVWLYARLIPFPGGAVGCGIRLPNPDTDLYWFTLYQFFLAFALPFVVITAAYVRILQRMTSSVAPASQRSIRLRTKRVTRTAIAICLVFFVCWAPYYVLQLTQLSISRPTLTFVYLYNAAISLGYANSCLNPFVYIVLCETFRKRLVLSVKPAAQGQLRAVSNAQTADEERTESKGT
The target in experiment [17] is T5, Neuropeptides B/W receptor type 1 (Homo sapiens, UniProt P48145).
T5 sequence (P48145 whole entry): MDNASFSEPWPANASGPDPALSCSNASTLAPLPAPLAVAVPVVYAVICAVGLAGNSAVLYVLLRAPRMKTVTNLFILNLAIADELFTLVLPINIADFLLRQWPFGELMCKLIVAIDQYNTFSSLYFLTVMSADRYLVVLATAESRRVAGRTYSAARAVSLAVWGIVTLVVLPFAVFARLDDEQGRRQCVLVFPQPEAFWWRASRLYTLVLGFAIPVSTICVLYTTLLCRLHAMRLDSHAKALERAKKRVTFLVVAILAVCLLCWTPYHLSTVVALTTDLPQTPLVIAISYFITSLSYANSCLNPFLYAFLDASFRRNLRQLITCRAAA
Put plainly: human NPBW1 receptor blockade, IC50 – cell-based, fluorescence, dose response, set 6, late-stage follow-up (AID 588583). Format: functional.

Experiment [18] in a line: inhibition of ARNT PAS-B/TACC3 complex formation – biochemical, AlphaScreen, cherry-picked samples, confirmation (AID 651703).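 Further: His-tagged ARNT PAS-B domain paired with GST-TACC3 E629A dimer coactivator fragment; potency of inhibitors that break up the complex and lower AlphaScreen signal.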 The class given is functional, Homo sapiens.
In experiment [19] the target is Ras and Rab interactor 1/Tyrosine-protein kinase ABL1 (Homo sapiens, UniProt P00519+Q13671). Format: functional.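 Further: biochemical TR-FRET dose-response test measuring inhibition of binding between Rin1 and Abl proteins.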

The results in this text go back to ChEMBL document CHEMBL1201862, “PubChem BioAssay data set” (2004).

SMILES strings stand for the structures. Active and inactive are the calls of the source.

Histone-lysine N-methyltransferase NSD2, sequence (O96028 whole entry): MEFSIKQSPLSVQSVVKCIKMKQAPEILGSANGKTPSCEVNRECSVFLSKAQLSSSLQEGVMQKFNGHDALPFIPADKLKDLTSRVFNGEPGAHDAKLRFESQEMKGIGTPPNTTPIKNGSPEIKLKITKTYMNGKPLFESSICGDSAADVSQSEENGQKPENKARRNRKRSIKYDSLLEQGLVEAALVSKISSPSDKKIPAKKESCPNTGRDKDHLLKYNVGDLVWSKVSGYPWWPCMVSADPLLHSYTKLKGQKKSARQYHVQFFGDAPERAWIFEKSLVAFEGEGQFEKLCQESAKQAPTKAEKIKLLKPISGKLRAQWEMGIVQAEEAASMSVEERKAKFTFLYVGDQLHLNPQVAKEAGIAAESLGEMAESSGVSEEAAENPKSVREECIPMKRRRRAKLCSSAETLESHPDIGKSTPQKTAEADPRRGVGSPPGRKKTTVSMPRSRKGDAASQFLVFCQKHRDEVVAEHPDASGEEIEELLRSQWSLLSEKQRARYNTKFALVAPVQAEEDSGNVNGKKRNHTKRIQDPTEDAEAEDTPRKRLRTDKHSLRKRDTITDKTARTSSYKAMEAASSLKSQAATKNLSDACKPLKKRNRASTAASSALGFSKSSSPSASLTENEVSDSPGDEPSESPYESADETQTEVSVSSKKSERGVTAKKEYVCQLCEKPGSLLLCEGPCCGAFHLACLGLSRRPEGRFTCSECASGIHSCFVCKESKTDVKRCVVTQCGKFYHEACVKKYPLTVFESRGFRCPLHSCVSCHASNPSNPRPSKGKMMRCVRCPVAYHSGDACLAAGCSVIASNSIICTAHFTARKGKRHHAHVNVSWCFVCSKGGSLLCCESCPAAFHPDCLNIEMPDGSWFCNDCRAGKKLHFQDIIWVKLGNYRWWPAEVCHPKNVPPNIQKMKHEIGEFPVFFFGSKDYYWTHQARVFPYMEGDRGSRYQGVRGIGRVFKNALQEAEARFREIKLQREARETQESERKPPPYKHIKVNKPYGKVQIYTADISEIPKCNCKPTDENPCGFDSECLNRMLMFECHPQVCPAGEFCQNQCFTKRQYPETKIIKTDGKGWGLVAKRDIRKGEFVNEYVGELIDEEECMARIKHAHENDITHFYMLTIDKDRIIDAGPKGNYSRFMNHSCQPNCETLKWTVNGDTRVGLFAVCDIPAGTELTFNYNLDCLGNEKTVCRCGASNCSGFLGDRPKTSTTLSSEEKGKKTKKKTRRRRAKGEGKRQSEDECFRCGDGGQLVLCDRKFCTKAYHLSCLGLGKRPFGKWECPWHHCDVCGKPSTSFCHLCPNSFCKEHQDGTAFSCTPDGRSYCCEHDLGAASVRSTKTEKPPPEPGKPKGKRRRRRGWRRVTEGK

On to `COCCNC(C(=O)Nc1cc(Cl)cc(Cl)c1)c1ccccc1` (stereo not given), for which the IC50 in experiment [1] is 16.1 µM (active).
Consider `Cn1c(C(=O)NCCN2CCCCCC2)cc2c(=O)n(C)c3ccccc3c21`, for which the AC50 in experiment [2] was 25.3 µM (active).
`Cc1cc(/C=C2\C(=O)NC(=O)N(c3ccccc3F)C2=O)c(C)n1-c1cc(C(=O)O)cc(C(=O)O)c1`: the EC50 in [3] and in experiment [4] was > 300 µM (not active) in each case. Moreover, the IC50 on Genome polyprotein was 63.6 µM (active); in experiment [5], 1.55 µM (active); in experiment [6], 10.7 µM (active). Further, in experiment [7], the AC50 is > 20 µM (inactive).
Regarding `CCc1ccc(/C=C2/C(=O)N(C)C(=S)N2CC(=O)OC)s1`, the EC50 was 16.6 µM (active) in experiment [8], > 120 µM (not active) in [9] and > 120 µM (not active) in the experiment with H4. Also, the CC50 in experiment [10] is > 100 µM (active).
For `CCCCN(C(C)=O)c1ccc2c(c1)C1CC2CCN1C(=O)OCc1ccccc1` (stereo not given), the AC50 in experiment [11] was 1.37 µM (active); in experiment [12], 66.9 µM (active); in experiment [13] it was 4.4 µM (active). Moreover, the IC50 at Protein Wnt-3a was 3.72 µM (active).
In the case of `CC(=O)c1cccc(-c2cnc3c(NC=O)cc(-c4ccc(N(C)C)cc4)cn23)c1`, the EC50 on Melanocortin receptor 4 is > 89.2 µM (inactive). The IC50 in [14] is 9.66 µM (active); in [15] it was 11.2 µM (active).
For the compound `N#CC(c1nc2ccccc2s1)c1c(Cl)cnn(Cc2cccc3ccccc23)c1=O` (stereo not given), the IC50 in experiment [16] and in [17] was 0.186 µM (active) each time.
With `N#CC(c1ccc(F)c(F)c1)c1c(Cl)cnn(Cc2cccc3ccccc23)c1=O` (stereo not given), the IC50 in [16] and in experiment [17] was 0.186 µM (active) in each case.
In the case of `N#C[C@@H]1[C@@H](c2ccc(-c3ccc(F)cc3)cc2)[C@H](CO)N1c1nc(-c2ccccc2)cs1`, in experiment [18], the AC50 is 84.2 µM (active).
For `Oc1ncnc2c1C(c1ccccc1)c1c(O)ncnc1O2`, the IC50 in [19] was 32 µM (inactive).

Broadly, the AC50 is the concentration giving half of the maximal activity seen. In general, EC50 refers to the concentration needed to bring the measured effect to its halfway point. What is called CC50 is the concentration at which the toxic effect on the cells reaches its halfway point.
